Where two headings read alike, the source gives them in different places.
Columns and labels:
[1] = type: physicochemical; design: key to Fibril / Fibril Formation / TEM 2cat / Fibril: 1 = fibrils present; 0 non-fibrillar structures; settings: for Fibril / Fibril Formation / Fibril: TEM; for Fibril / Fibril Formation: 1 mg/mL, uranyl acetate stain, qualitative
[2] = system: HIV-1 infection of TZM-bl cells; experiment: HIV-1 infectivity enhancement assay, β-galactosidase luminescence; type: cell-based; settings: for Rel-EFC / Log10 Infection Rel EFC: 1.3 µM peptide; for Rel-EFC: infection relative to EF-C (QCKIKQIINMWQ = 1); for Log10 Infection Rel EFC: log10 of infection relative to EF-C; for Log Infectivity: Fig. S7 panel A (plotted against β-sheet content), Log10 infection relative to EF-C, TZM-bl cells, asymmetric std dev errors; for Log10 Infection Rel EF-C: HIV-1 infection of TZM-bl cells; for Log10 of Rel to EFC (Feb2021): Log10 of infection relative to EF-C; for Log10 Inf. rel. to EF-C: log10 of HIV-1 infection of TZM-bl cells relative to EF-C (EF-C = 0); for Abs. Inf.: absolute infection signal, HIV-1 on TZM-bl cells, β-galactosidase luminescence
[3] = Zeta-potential measurement; type: physicochemical
Method in brief: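 Samples: 1 mg/mL in PBS pH 7.4 (from DMSO), 1 d at RT, then diluted in 1 mM KCl immediately before measurement. Triplicates, two independent runs averaged.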

[4] = Turbidity, derived count rate of scattered light; type: physicochemical; settings: for Count Rate: derived count rate of scattered light (turbidity); for Log10 Count Rate: turbidity, derived count rate of scattered light, data of Figure 2D
[5] = β-sheet content by ATR-FT-IR; type: physicochemical; settings: for b -sheet / %: Fig. S7 panel A, β-sheet content by ATR-FT-IR
Method in brief: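 Conversion rate: fluorescamine fluorescence (ex 365/em 470 nm, 20 min RT) of 3 kDa filtrate versus unfiltered PNF, CR = 100 − 100 × filtrate/original intensity, triplicates. β-sheet content came from ATR FT-IR of lyophilized 1 mg/mL PNF powder, 64 scans.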

[6] = 1 = fibrils present, 0 = non-fibrillar
[7] = 1 = fibrils present, 0 = non-fibrillar structures
[8] = category: fibrils present or non-fibrillar
[9] = Log10 of infection rate relative to EF-C, Figure 3A source data
[10] = infection rate relative to EF-C, log10, data of Figure 2D
[11] = infection rate relative to EF-C, log10, source data of Figure 2C
[12] = zeta potential of peptide assemblies
[13] = zeta-potential of peptide, source data of Figure 2C
[14] = zeta-potential of the peptide assemblies, mean, Figure 3A source data
[15] = FigS12 panel A, fibril category by TEM

Substance | TEM 2cat ([1]; Fig S10 panel D) | Fibril / Fibril Formation [1] | Fibril [1, 6] | Fibril [1, 7] | TEM 2cat [1, 8] | Rel-EFC [2] | Log10 Infection Rel EFC [2] | Log Infectivity [2] | Log10 Infection Rel EF-C [2, 9] | Log10 Infection Rel EF-C [2, 10] | Log10 Infection Rel EF-C [2, 11] | Log10 Inf. rel. to EF-C [2] | Zeta-Pot. [3, 12] | Zeta-Potential / mV [3, 13] | Zeta-Potential / mV [3, 14] | Count Rate [4] | Log10 Count Rate [4] | b -sheet / % [5] | TEM 2cat [1, 15] | Fibril ([1]; FigS12 panel B) | also measured
KIKIQINAWQ | 1 | 1 | 1 | 1 | 1 | 0,54 | -0,27 | -0.2703 | -0.27 | -0.2703 | -0.2703 | -0.2703 | 13.1 | 13.72 mV | 13.1 mV | 1494 | 3.174 | 27.74% | – | – | Log10 of Rel to EFC (Feb2021) ([2]; all peptides of FigS16): -0.27
KIKQIIN | 0 | 0 | 0 | 0 | – | 0,04 | -1,4 | -1.4 | -1.4 | -1.4 | -1.4 | -1.4 | -11.7 | -5.929 mV | -11.7 mV | 64.03 | 1.806 | 37.69% | 0 | 0 | –
KVKGVGK | 0 | 0 | 0 | 0 | – | 0,03 | -1,59 | -1.587 | -1.59 | -1.587 | -1.587 | -1.587 | – | -7.825 mV | -12.8 mV | 51.17 | 1.709 | 8.763% | 0 | 0 | Abs. Inf. [2]: 286.7; Zeta-Pot. [3]: -12.8
KAKQAANMWQ | 0 | 0 | 0 | 0 | – | 0,03 | -1,51 | -1.514 | -1.51 | -1.514 | -1.514 | -1.514 | – | -8.433 mV | -12.9 mV | 690.5 | 2.839 | 10.94% | 0 | 0 | Abs. Inf. [2]: 343.3; Zeta-Pot. [3]: -12.9
KIKIKIKIYYYY | 0 | 0 | 0 | 0 | 0 | 1,38 | 0,14 | 0.1402 | 0.14 | 0.1402 | 0.1402 | 0.1402 | 13.3 | 14.07 mV | 13.3 mV | 9918 | 3.996 | 56.7% | – | – | Log10 of Rel to EFC (Feb2021) ([2]; all peptides of FigS16): 0.14; Log10 of Rel to EFC (Feb2021) ([2]; second listing, peptides with TEM 2cat 0): 0.14; beta sheet ([5]; peptides with TEM 2cat 0): 57

From publication PMC10447463, “Data-mining unveils structure–property–activity correlation of viral infectivity enhancing self-assembling peptides” (Nature Communications, 2023)
